Columns and labels:
[1] = test system: DNA methyltransferase (DNMT); test: Screening system for DNMT inhibitory activity (secretory luciferase reporter in HML58-3 cells); type: cell-based; conditions: 10 μM of sample, cultured for 4 days, cell supernatant on day 5, HML58-3 cells
Excerpt: The screening system for assessment of DNMT inhibitory activity used for 5′-position dibenzyl monophosphate derivatives of 5-azacytidine and its 2′-deoxy form is the evaluation system which we have developed recently (Epigenetics, 2016, Dec 9:0: Establishment of a high-throughput detection system for DNA demethylating agents, E. Okochi-Takada, N. Hattori et al.). It is a simple screening system for assessment of DNMT inhibitory activity which uses genetically modified colorectal cancer cells, wherein […] luciferase can be expressed when 5-position methylation of cytosine ring in expressed gene promoter region is inhibited by inhibiting DNA methyltransferase (DNMT).
The screening system for assessment of DNMT inhibitory activity used for 5′-position dibenzyl monophosphate derivatives of 5-azacytidine and its 2′-deoxy form is the evaluation system which we have developed recently (Epigenetics, 2016, Dec 9:0: Establishment of a high-throughput detection system for DNA demethylating agents, E. Okochi-Takada, N.
(§1) Hattori et al.). In the evaluation system, a vector in which a secretory luciferase gene was ligated in the downstream of the endogenous promoter CpG island region was introduced into colon cancer cells. When inhibitions of DNA methyltransferase (DNMT) or other DNA methylation maintenance mechanism occur, C-methylation of the promoter CpG island decreases and secretory luciferase is expressed. Since the luciferase is secretory type, it is a screening system for DNMT inhibitory activity by which the assessment can be conducted easily by collecting cell supernatant and adding the substrate of luciferin. That is, on the day before the sample addition, colon cancer cells HML58-3 that had been genetically modified were seeded in a 96-well cell culture plate. 10 μM of each sample was added to each of them, and cultured for 4 days. On day 5, the cell supernatant was collected and luciferase activity was determined. In addition, cell account for each sample was determined according to WST-8 method.

[2] = test system: colon cancer cells HML58-3; test: Cell count by WST-8 method (cytotoxicity); type: cell-based; conditions: 10 μM of sample, cultured for 4 days, HML58-3 cells
Excerpt: as §1

[3] = Distribution coefficient log P (n-octanol/PBS); type: physicochemical
Excerpt: The separation systems of silica gel column, separation yields, data obtained from instrumental analysis and distribution coefficients of the compounds (A) to (E) which are 5′-position dibenzyl monophosphates of 5-azacytidines synthesized according to the above synthetic methods A or B are shown as below.

[4] = test system: HCT116 cell (human colon cancer); test: Antitumor activity in HCT116 cell-transplanted mouse model; type: in vivo, nude mice; conditions: intraperitoneal, twice a week, 6 times in total; 5.5, 11 and 22 mg/kg; observed until 28th day; vs vehicle (DMSO)
Description: (§2) In vivo assessment In order to investigate the antitumor activity of 5′-position dibenzyl monophosphate derivatives of 5-azacytidine and its 2′-deoxy form, a HCT116 cell-transplanted mouse model derived from human colon cancer was used. After nurturing nude mice (female, 5 weeks old), 5×10^6 cells were transplanted subcutaneously into right flank. From the grouping date, samples in various concentrations (DMSO solution) were administered intraperitoneally for 6 times in total, at a frequency of twice a week. The observation was performed until the 28th day after grouping, during which body weight and tumor diameter were measured at a frequency of once a week.

[5] = Body weight / safety in HCT116 cell-transplanted mouse model; type: in vivo, nude mice; conditions: intraperitoneal, twice a week, 6 times in total; 5.5, 11 and 22 mg/kg; observed until 28th day
Description: as §2

Row | Substance | Luciferase activity (DNMT inhibition) [1] | Cytotoxicity (cell count, WST-8 method) [2] | Distribution coefficient log P [3] | Antitumor activity (tumor volume) [4] | Safety / change in body weight [5]
1 | O,O′-Di(4-chloro)benzyl 5-aza-2′-deoxycytidylate [Compound (E)] | very strong luciferase activity | low | 2.44 |  | 
2 | O,O′-Di(4-fluoro)benzyl 5-aza-2′-deoxycytidylate [Compound (D)] | very strong luciferase activity | low | 1.40 | dose-dependent antitumor activity | highly safe
3 | O,O′-Di(4-methyl)benzyl 5-aza-2′-deoxycytidylate [Compound (C)] | very strong luciferase activity | low |  |  | 
4 | O,O′-Dibenzyl 5-aza-2′-deoxycytidylate [Compound (B)] | very strong luciferase activity | low | 1.15 |  | 
5 | O,O′-Dibenzyl 5-azacytidylate [Compound (A)] |  |  | 0.83 |  | 

Source: patent US11173174B2, “DNMT inhibitor as solid tumor therapeutic drug” (OHARA PHARMACEUTICAL CO., LTD., priority 2017, dated 2021)
